Laboratory results taken from paper PMC10714399, “Open Source Antibiotics: Simple Diarylimidazoles Are Potent against Methicillin-Resistant Staphylococcus aureus” (ACS Infectious Diseases, 2023).
Converted amounts (≈) assume the structure as drawn. “And” between values parts separate entries of the source, which are not always exact repeats. Equal values may be shown once. Where a name gives a salt, the structure may show the parent alone. Read-outs that look alike come from different tables or passages of the source. Values belong to the compound of their own block, whether it stands above or below them.

Tests used:
[1] = system: Staphylococcus aureus ATCC 43300 MRSA; test: CO-ADD antibacterial assay (growth inhibition, MIC), MRSA; type: cell-based
Method: Hit Confirmation of active compounds by whole cell growth inhibition assays was conducted as an 8-point dose response to determine the Minimum Inhibitory Concentration (MIC), in duplicate (n=2). The inhibition of growth is measured against those microorganisms that […]
Included in the Hit Confirmation were 5 bacteria: Escherichia coli, Klebsiella pneumoniae, Acinetobacter baumannii, Pseudomonas aeruginosa and Staphylococcus aureus, and 2 fungi Candida albicans and Cryptococcus neoformans. […]
Assay Parameters Bacteria Fungi HEK293 Haemolysis […]
Duplicate (n=2) Duplicate (n=2) Duplicate (n=2) Duplicate (n=2)
QC Control MIC: Control MIC: Control CC50: Control HC10:
Non-Binding Non-Binding TC, 384-well Polypropylene
Plates Surface (NBS), Surface (NBS), black wall/clear 384-well and 384-well plate 384-well plate bottom polystyrene 384-
Cation-adjusted Yeast Nitrogen DMEM
Media Mueller Hinton Base supplemented 0.9% NaCl
Hit Confirmation outcomes are detailed in individual Project reports, personalised for each Project Submission for each CO-ADD user.
Please see your data sheet with file extension P0XXX_HC_data.xlsx, for example CO-ADD Project P0100, P0100_HC_data.xlsx
Study: HC_data ID: HC-Procedures & Materials
Date: Last updated June 2018 Confidential Page 3 of 11
(1 picture or pasted object on this page, not shown here)
Samples were provided by the collaborator and stored frozen at -20 °C. Samples were prepared in DMSO and water to a final testing concentration of 32 µg/mL or 20 µM (unless otherwise indicated in the data sheet) and serially diluted 1:2 fold for 8 times. Each sample concentration was prepared in 384-well plates, non-binding surface plate (NBS; Corning 3640) for each bacterial/fungal strain, tissue-culture treated (TC-treated; Corning 3712/3764) black for mammalian cell types and polypropylene 384-well (PP; Corning 3657) for haemolysis assays, all in duplicate (n=2), and keeping the final DMSO concentration to a maximum of 0.5%. All the sample preparation was done using liquid handling robots. […]
detailed in the Data sheet for the individual Project.
All bacteria were cultured in Cation-adjusted Mueller Hinton broth (CAMHB) at 37 °C overnight. A sample of each culture was then diluted 40-fold in fresh broth and incubated at 37 °C for 1.5-3 h. The resultant mid-log phase cultures were diluted (CFU/mL measured by OD600), then added to each well of the compound containing plates, giving a cell density of 5×10^5 CFU/mL and a total volume of 50 µL. All the plates were covered and incubated at 37 °C for 18 h without shaking.
Inhibition of bacterial growth was determined measuring absorbance at 600 nm (OD600), using a Tecan M1000 Pro monochromator plate reader. The percentage of growth inhibition was calculated for each well, using the negative control (media only) and positive control (bacteria without inhibitors) on the same plate as references.
The percentage of growth inhibition was calculated for each well, using the negative control (media only) and positive control (bacteria without inhibitors) on the same plate. The MIC […]
by an inhibition ≥ 80%. In addition, the maximal percentage of growth inhibition is reported as DMax, indicating any compounds with partial activity.
Date: Last updated June 2018 Confidential Page 5 of 11
Material Code Brand/Supplier Cat No.
Compound preparation plate, Polypropylene PP Corning 3364
Assay Plates – Antimicrobial
Non-binding surface NBS 384w Corning 3640
Assay Plates – Cytotoxicity
Tissue culture treated Black/Clear bottom 384w Corning 3712
Assay Plates - Haemolysis PP-Haem Corning 3657 […]
Growth media - bacteria CAMHB Bacto Laboratories 212322
Culture agar - fungi YPD Becton Dickinson 242720
Growth media - fungi YNB Becton Dickinson 233520
Resazurin Sigma-Aldrich R7017
Dulbecco's Modified Eagle Medium DMEM Life Technologies 11995-073
Foetal Bovine Serum FBS Bovogen FFBS-500
0.9% NaCl Saline Baxter AHF7124
Sample Name Sample ID MW Conc. Solvent Source […]

[2] = system: S. aureus ATCC 25923 (methicillin-susceptible); test: In vitro antibacterial activity, MIC (UCL), MSSA; type: cell-based, Staphylococcus aureus; conditions: Staphylococcus aureus; read-out: MSSA MIC (UCL)
Method in brief: (§1)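 Each organism was taken from overnight tryptone soya agar, suspended in PBS at A600 0.1, diluted 1:100 in isosensitest broth and added to serially diluted compound (32 to 0.03 μg/mL).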

[3] = system: Staphylococcus aureus NCTC 13373 (mecA-positive; methicillin-resistant); test: In vitro antibacterial activity, MIC (UCL School of Pharmacy assay), MRSA; type: cell-based; conditions: Staphylococcus aureus, UCL; read-out: MRSA MIC (UCL)
Method in brief: as §1

[4] = Human plasma protein binding (PPB); type: in vitro ADME; conditions: human, plasma, human plasma, NEU; read-out: Human PPB (NEU) (converted)
[5] = system: PMM (primary mouse macrophages); test: Toxicity against PMM; type: cell-based; conditions: PMM
Method: (§2) ADME and toxicity for compounds were measured according to procedures outlined in the manuscript submitted in parallel to this one;2 other procedures were used for those compounds analysed by Monash University (in vitro ADME) or UCL (toxicity), both described in the main

[6] = Rat hepatocyte intrinsic clearance; type: in vitro ADME; conditions: rat hepatocytes, NEU; for hepatocyte CLint: read-out: Rat Hep CLint (NEU)
[7] = system: Enterococcus faecalis ATCC 51299 (vanA-positive; vancomycin-resistant); test: In vitro antibacterial activity, MIC (UCL), VRE; type: cell-based; conditions: read-out: VRE MIC (UCL)
Method in brief: as §1

[8] = Aqueous solubility; type: physicochemical; conditions: thermodynamic from solid; NEU; read-out: Aqueous Solubility (NEU)
[9] = system: MRC-5SV2 (human lung fibroblast cell line); test: Toxicity against MRC-5SV2; type: cell-based; conditions: MRC5 cells
Method: as §2

[10] = LogD7.4 (Chrom Log D); type: physicochemical; conditions: chromatographic system (Chrom Log D); pH 7.4, NEU; read-out: LogD 7.4 (NEU)
Text: To guide our initial SAR exploration work, we obtained liver microsomal intrinsic clearance data for 5 of the 18 compounds assayed by CO-ADD (Supporting Information - CDCO Report and Supporting Information - Biology). We then acquired intrinsic clearance (CLint), plasma protein binding (PPB), and solubility data on further compounds throughout the SAR campaign (Supporting Information - Biology, Tables S3 and S4). […] The more polar compounds (lower LogD) had reduced PPB and were more metabolically stable.
Table S4. ADME and Pharmacokinetics: compounds only appearing in the Supplementary […]
MRSA Aqueous HLM CLint Rat Hep CLint
Cmpd MIC Solubility Human PPB (%) (µL/min/mg (µL/min/10x6 LogD7.4
(µg/mL) (µM) protein) cells)
as §2

[11] = Human liver microsome intrinsic clearance; type: in vitro ADME; conditions: human liver microsomes, NEU; read-out: HLM CLint (NEU)
[12] = system: VSE; test: In vitro antibacterial activity, MIC, VSE; type: cell-based; conditions: read-out: VSE MIC (UCL)

Compound: c1cncc(-c2nc3n(c2-c2ccc4c(c2)OCO4)CCC3)c1 [OSA_000816]
MIC ([1]; read-out: MRSA MIC (CO-ADD)): > 32 µg/mL

Compound: c1ccc(-c2nc3n(c2-c2ccc4c(c2)OCCO4)CCC3)nc1 [OSA_000819]
MIC ([1]; read-out: MRSA MIC (CO-ADD)): 16 µg/mL (≈ 50.1 µM)

Compound: COc1ccc(-c2c(-c3ccccn3)nc3n2CCC3)cc1OC [OSA_000820]
MIC [2]: > 32 µg/mL
MIC [3]: > 32 µg/mL
MIC ([1]; read-out: MRSA MIC (CO-ADD)): 32 µg/mL (≈ 99.6 µM)

Compound: COc1ccc(-c2c(-c3ccccn3)nc3n2CCC3)cc1 [OSA_000823]
MIC ([1]; read-out: MRSA MIC (CO-ADD)): 16 µg/mL (≈ 54.9 µM)

Compound: CSc1cccc(-c2c(-c3ccccn3)nc3n2CCC3)c1 [OSA_000826]
MIC ([1]; read-out: MRSA MIC (CO-ADD)): 4 µg/mL (≈ 13 µM)

Compound: c1ccc(-c2nc3n(c2-c2ccc4ccoc4c2)CCC3)nc1 [OSA_000829]
MIC ([1]; read-out: MRSA MIC (CO-ADD)): 4 µg/mL (≈ 13.3 µM)

Compound: c1ccc(-c2nc3n(c2-c2ccc4ccsc4c2)CCC3)nc1 [OSA_000830]
MIC ([1]; read-out: MRSA MIC (CO-ADD)): 4 µg/mL (≈ 12.6 µM)

Compound: COc1ccn2c(-c3cccc(Cl)n3)c(-c3ccccn3)nc2c1 [OSA_000857]
MIC [3]: > 32 µg/mL
fraction unbound [4]: 0.035
PMM TC50 [5]: 64 µM
hepatocyte CLint [6]: 12.9 µL/min/1e6 cells
MIC [7]: > 32 µg/mL
solubility [8]: 37 µM (≈ 12.5 µg/mL)
MRC5 TC50 [9]: 24.2 µM
chromatographic logD [10]: 2.5
microsomal CLint [11]: 124 µL/min/mg

Compound: CN[C@H](CC(C)C)C(=O)N[C@H]1C(=O)N[C@@H](CC(N)=O)C(=O)N[C@H]2C(=O)N[C@H]3C(=O)N[C@H](C(=O)N[C@H](C(=O)O)c4cc(O)cc(O)c4-c4cc3ccc4O)[C@H](O)c3ccc(c(Cl)c3)Oc3cc2cc(c3O[C@@H]2O[C@H](CO)[C@@H](O)[C@H](O)[C@H]2O[C@H]2C[C@](C)(N)[C@H](O)[C@H](C)O2)Oc2ccc(cc2Cl)[C@H]1O [Vancomycin - HCl, Vancomycin - HCL, reference compound]
MIC ([1]; read-out: MIC MRSA (CO-ADD)): 1 µg/mL

Further lines, with some results ahead:

MIC ([1]; read-out: MRSA MIC (CO-ADD)): > 32 µg/mL
Compound: c1ccc(-c2nc3ncccn3c2-c2ccc3c(c2)OCO3)nc1 [OSA_000815]

MIC ([1]; read-out: MRSA MIC (CO-ADD)): > 32 µg/mL
Compound: c1cc(-c2nc3n(c2-c2ccc4c(c2)OCO4)CCC3)ccn1 [OSA_000817]

MIC ([1]; read-out: MRSA MIC (CO-ADD)): 16 µg/mL (≈ 50.1 µM)
Compound: c1ccc(-c2nc3n(c2-c2ccc4c(c2)OCO4)CCCC3)nc1 [OSA_000818]

MIC ([1]; read-out: MRSA MIC (CO-ADD)): 4 µg/mL (≈ 13 µM)
Compound: CSc1ccc(-c2c(-c3ccccn3)nc3n2CCC3)cc1 [OSA_000824]

MIC ([1]; read-out: MRSA MIC (CO-ADD)): 16 µg/mL (≈ 54.9 µM)
Compound: COc1cccc(-c2c(-c3ccccn3)nc3n2CCC3)c1 [OSA_000825]

MIC ([1]; read-out: MRSA MIC (CO-ADD)): 32 µg/mL (≈ 105 µM)
Compound: c1ccc(-c2nc3n(c2-c2ccc4c(c2)CCO4)CCC3)nc1 [OSA_000827]

MIC ([1]; read-out: MRSA MIC (CO-ADD)): 32 µg/mL (≈ 105 µM)
Compound: c1ccc(-c2nc3n(c2-c2ccc4c(c2)OCC4)CCC3)nc1 [OSA_000828]

MIC [3]: > 32 µg/mL
fraction unbound [4]: 0.21
Rat Hep CLint (NEU) [6]: 52.9 uL/min/10x6 cells
MIC [7]: > 32 µg/mL
solubility [8]: 723 µM (≈ 163 µg/mL)
chromatographic logD [10]: 2.2
microsomal CLint [11]: > 300 µL/min/mg
Compound: COc1ccn2cc(-c3ccccn3)nc2c1 [OSA_000856]
PMM TC50 [5]: 64 µM
MRC5 TC50 [9]: 51.6 µM

MIC [2]: 16 µg/mL (≈ 52.6 µM)
MIC [3]: 8 µg/mL (≈ 26.3 µM)
fraction unbound [4]: 0.017
hepatocyte CLint [6]: 151 µL/min/1e6 cells
MIC [7]: 32 µg/mL (≈ 105 µM)
solubility [8]: 0.5 µM (≈ 0.152 µg/mL)
MIC [12]: 32 µg/mL (≈ 105 µM)
chromatographic logD [10]: 3.3
microsomal CLint [11]: 148 µL/min/mg
Compound: Fc1ccc(Nc2c(-c3ccccn3)nc3ccccn23)cc1 [OSA_000987]
MRC5 TC50 [9]: 7.65 µM and 6.04 µM

MIC [2]: 8 µg/mL (≈ 21.8 µM)
MIC [3]: 8 µg/mL (≈ 21.8 µM)
fraction unbound [4]: 0.0085
hepatocyte CLint [6]: > 300 µL/min/1e6 cells
MIC [7]: 32 µg/mL (≈ 87.3 µM)
solubility [8]: 8 µM (≈ 2.93 µg/mL)
MIC [12]: 16 µg/mL (≈ 43.7 µM)
chromatographic logD [10]: 4
microsomal CLint [11]: 100 µL/min/mg
Compound: COc1ccc2nc(-c3ccccn3)c(N(C)c3cc(F)cc(F)c3)n2c1 [OSA_000998]

MIC [2]: 8 µg/mL (≈ 21.1 µM)
MIC [3]: 2 µg/mL (≈ 5.29 µM)
fraction unbound [4]: < 0.033
hepatocyte CLint [6]: > 300 µL/min/1e6 cells
MIC [7]: 8 µg/mL (≈ 21.1 µM)
solubility [8]: 12 µM (≈ 4.54 µg/mL)
MIC [12]: 8 µg/mL (≈ 21.1 µM)
chromatographic logD [10]: 3.1
microsomal CLint [11]: 51.2 µL/min/mg
Compound: COc1ccnc(-c2nc3cc(OC)ccn3c2N(C)c2ccc(F)cc2)c1 [OSA_001000]
